In data set [1] the test system is LNCaP (human prostate carcinoma). Nature of the data set: Cytotoxicity (MTT) assay. Format: cell-based. As to conditions: LNCaP cell line. As for the experimental part: (§1) Cells were seeded into 96-well microtitre plates to the expected target cell density (2,500-30,000 cells-well^-1, according to the particular cell line). The inoculant were pre-incubated to stabilize for 24 h (at 37°C and 5 % CO^2). Fourfold dilutions (0-200 µmol·L^-1; in triplicates) of the tested compound 1 were added to the microtitre plate wells at time zero. The cells were treated with compound 1 for 72 h under standard cultivation conditions. Then, the cells were assayed using MTT for 4 h. Produced formazan, arisen by mitochondrial reduction of MTT, was dissolved in 10 % aqueous solution of sodium dodecyl sulphate (pH 5.5; 100 µL·well^-1, hole diameter is 6.54 mm) followed by overnight incubation. […] The absorption of the produced formazan was measured at 540 nm using Labsystem iEMS Reader MF. The tumor cell inhibitory concentration (IC) of compound 1 was calculated using the following equation: IC = (ODdrug / mean ODcontrol) · 100 %. The IC50 (Table 1) value (drug concentration being lethal for 50 % of the cells) was calculated from appropriate dose-response curves. (Noskova, V.; Dz ? ubak, P.; Kuzmina, G.; Ludkova, A.; Stehlik, D.; Trojanec, R.; Jano ? akova, A.; Kor ? inkova, G.; Mihal, V.; Hajduch, M. Neoplasma 2002, 49, 418-425. 38. Hajduch, M.; Mihal, V.; Minar ? ik, J.; Faber, E.; ? afarova, M.; Weigl, E.; Antalek, P. Cytotechnology 1996, 19, 243-245)

In data set [2] the test system is MCF-7 (breast cancer cells). The data set is described as follows: Cytotoxicity (MTT) assay. The class given is cell-based. As to conditions: MCF-7 cell line. As for the experimental part: as §1
In data set [3] the test system is PE/CA-PJ34 (human basaloid squamous cell carcinoma). The data set is described as follows: Cytotoxicity (MTT) assay. The class given is cell-based. The note with it: PE/CA-PJ34 cell line. The procedure:
as §1

Data set [4] relates to 4T1(mouse mammary gland carcinoma). The data set is described as follows: Cytotoxicity (MTT) assay. The note with it: 4T1 cell line. Format: cell-based. As for the experimental part: as §1
Data set [5] deals with MDA-MB-231 (human breast carcinoma). The data set is described as follows: Cytotoxicity (MTT) assay. The class given is cell-based. The note with it: MDA-MB-231 cell line. As for the experimental part:
as §1

Data set [6] deals with MiaPaCa-2 (human pancreatic carcinoma). Nature of the data set: Cytotoxicity (MTT) assay. The class given is cell-based. The note with it: MiaPaCa-2 cell line. As for the experimental part: as §1
Data set [7] relates to U-2 OS (human osteosarcoma). The data set is described as follows: Cytotoxicity (MTT) assay. Format: cell-based. As to conditions: U-2 OS cell line. The procedure:
as §1

For data set [8], the system named is human breast carcinoma (MDA-MB-231). The data set is described as follows: Effect on tumor growth in vivo (subcutaneous xenograft). Set-up: species or system Nu/nu mice. An excerpt: Effect of salt 1 on tumor growth in vivo. […] The control group (◆) consisted of untreated mice with a tumor.

This note sets out measurements from patent EP2927230A1, “PENTAMETHINIUM SALTS WITH AN EXPANDED QUINOXALINE UNIT AND ITS USE IN ANTICANCER THERAPY” (University of Chemistry and Technology - Prague, priority 2014, dated 2015).

The structures appear in SMILES notation.

Turning to `CCCN1C(=C2C=C(C=Cc3sc4ccccc4[n+]3CCC)c3nc4ccccc4nc32)Sc2ccccc21` [compound 1], the cytotoxicity result in data set [1], in data set [2], in data set [3], in data set [4], in data set [5] and in data set [6] was “high cytotoxicity” throughout. The cytotoxicity result in data set [7] is “high cytotoxicity”. In addition, in data set [8] (Nu/nu mice with MDA-MB-231, after application, for the duration of the experiment (more than 40 days)), the tumor growth result was “practically stopped”. In addition, the anticancer effect result in data set [8] (Nu/nu mice with human breast carcinoma (MDA-MB-231)) is “high anticancer effect”. Moreover, in data set [8] (intravenously, 5 mgkg-1, twice a week, * p<0.05, ** p<0.01, n=5 mice per group), the “differences in the tumor volume of control mice versus treated mice” value was “Statistically significant differences”.
